What all share (format): biochemical
One test concerns the target T1, JAK3 (Homo sapiens, UniProt P52333).
T1 sequence (P52333 1-1124): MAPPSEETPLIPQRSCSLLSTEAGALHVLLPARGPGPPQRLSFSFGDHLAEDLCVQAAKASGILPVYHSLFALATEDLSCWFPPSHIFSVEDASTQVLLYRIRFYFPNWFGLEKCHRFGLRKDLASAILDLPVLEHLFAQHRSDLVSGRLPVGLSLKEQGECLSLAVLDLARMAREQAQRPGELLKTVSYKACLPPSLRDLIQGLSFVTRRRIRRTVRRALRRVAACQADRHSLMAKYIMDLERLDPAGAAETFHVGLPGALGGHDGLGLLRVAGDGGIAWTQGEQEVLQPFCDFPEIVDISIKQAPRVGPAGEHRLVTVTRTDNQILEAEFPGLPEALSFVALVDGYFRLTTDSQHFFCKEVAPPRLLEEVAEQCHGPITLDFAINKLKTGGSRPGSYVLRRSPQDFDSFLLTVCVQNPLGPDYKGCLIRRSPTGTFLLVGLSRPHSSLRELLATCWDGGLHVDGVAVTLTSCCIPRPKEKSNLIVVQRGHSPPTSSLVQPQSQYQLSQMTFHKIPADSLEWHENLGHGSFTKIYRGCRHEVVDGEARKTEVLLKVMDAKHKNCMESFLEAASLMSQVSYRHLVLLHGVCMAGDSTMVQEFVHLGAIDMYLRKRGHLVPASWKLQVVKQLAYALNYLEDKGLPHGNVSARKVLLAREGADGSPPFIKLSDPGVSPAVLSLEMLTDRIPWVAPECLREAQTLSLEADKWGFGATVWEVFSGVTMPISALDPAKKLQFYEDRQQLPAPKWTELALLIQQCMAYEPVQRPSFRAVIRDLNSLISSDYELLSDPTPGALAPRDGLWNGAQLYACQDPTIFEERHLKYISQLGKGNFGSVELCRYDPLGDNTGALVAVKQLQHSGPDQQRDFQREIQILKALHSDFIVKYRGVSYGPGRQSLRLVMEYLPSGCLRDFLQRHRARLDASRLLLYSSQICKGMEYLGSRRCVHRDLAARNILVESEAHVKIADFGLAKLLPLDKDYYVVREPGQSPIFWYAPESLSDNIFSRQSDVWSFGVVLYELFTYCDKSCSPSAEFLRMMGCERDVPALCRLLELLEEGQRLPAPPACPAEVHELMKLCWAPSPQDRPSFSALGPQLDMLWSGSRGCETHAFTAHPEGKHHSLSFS
The test is described as follows: Inhibition of a panel of kinases, in vitro HotSpot kinase assay: JAK3. The settings on record: 1 μM ATP, read-out: JAK3 (IC50).

The target of the next test is T2, BTK-WT (Homo sapiens, UniProt Q06187).
T2 construct: purified from insect cells as a full-length construct containing an N-terminal 6X-His tag; His6 (N); made in house; host or cells: insect cells (baculovirus Sf21 in Method B)
T2 sequence (Q06187 whole entry): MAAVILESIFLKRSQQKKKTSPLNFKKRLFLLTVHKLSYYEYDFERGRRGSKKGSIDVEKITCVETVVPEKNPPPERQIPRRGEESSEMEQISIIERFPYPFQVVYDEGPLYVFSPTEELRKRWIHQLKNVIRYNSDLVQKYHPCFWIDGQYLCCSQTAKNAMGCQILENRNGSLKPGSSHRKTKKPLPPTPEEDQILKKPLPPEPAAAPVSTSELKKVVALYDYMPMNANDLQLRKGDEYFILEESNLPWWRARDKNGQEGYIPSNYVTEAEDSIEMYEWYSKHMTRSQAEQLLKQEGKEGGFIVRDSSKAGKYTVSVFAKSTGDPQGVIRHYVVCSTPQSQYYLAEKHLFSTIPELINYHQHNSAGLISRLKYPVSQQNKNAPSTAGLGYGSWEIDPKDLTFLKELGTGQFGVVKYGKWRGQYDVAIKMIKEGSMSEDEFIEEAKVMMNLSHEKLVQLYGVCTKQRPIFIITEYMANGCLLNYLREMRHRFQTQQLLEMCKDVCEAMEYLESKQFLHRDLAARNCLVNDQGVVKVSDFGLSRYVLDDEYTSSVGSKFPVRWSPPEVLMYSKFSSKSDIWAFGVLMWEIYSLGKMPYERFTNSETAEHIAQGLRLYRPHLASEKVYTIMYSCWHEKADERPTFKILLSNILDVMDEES
The test is described as follows: Btk in vitro inhibitory activity (one of Method A TR-FRET, Method B electrophoretic mobility shift, Method C radiometric filter binding). The settings on record: read-out: BTK-WT (IC50).

Another test deals with LCK (Homo sapiens, UniProt P06239). Kind of test: Inhibition of a panel of kinases, in vitro HotSpot kinase assay: LCK. The settings on record: 1 μM ATP, read-out: LCK (IC50).
LCK, sequence (P06239 whole entry): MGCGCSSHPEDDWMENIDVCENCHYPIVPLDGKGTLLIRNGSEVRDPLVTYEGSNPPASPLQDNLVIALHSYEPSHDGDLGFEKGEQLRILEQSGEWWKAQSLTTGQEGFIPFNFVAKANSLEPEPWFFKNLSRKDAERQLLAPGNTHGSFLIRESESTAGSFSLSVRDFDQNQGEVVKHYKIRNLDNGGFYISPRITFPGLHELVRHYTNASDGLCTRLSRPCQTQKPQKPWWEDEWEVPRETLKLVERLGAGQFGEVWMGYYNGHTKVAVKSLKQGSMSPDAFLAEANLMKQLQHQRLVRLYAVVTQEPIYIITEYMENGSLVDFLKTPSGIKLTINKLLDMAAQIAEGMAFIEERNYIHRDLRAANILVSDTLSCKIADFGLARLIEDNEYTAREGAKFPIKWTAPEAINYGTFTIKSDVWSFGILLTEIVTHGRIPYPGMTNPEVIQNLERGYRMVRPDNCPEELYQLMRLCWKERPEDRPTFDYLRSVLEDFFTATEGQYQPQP

Structures are written as SMILES. pIC50: −log10 of the molar value. Read-outs that look alike come from different tables or passages of the source.

As for `Cc1cc(Nc2nc(N[C@@H]3CCN(C(=O)N(C)C)C3)cnc2C(N)=O)sn1` [Example C-12, 5-([(3R)-1-(dimethylcarbamoyl)pyrrolidin-3-yl]amino)-3-[(3-methyl-1,2-thiazol-5-yl)amino]pyrazine-2-carboxamide], the pIC50 is 6.00 to 7.00 on JAK3 (Table 12, Formula C-I); 6.00 to 7.00 at BTK-WT (Table 12, Formula C-I); 6.00 to 7.00 at LCK (Table 12, Formula C-I).
Consider `CCn1ccc2cc(C(=O)N[C@@H]3CCCN(c4cnc(C(N)=O)c(Nc5cc(C)ns5)n4)C3)ccc21` [Example A-31, N-[(3R)-1-{5-carbamoyl-6-[(3-methyl-1,2-thiazol-5-yl)amino]pyrazin-2-yl}piperidin-3-yl]-1-ethyl-1H-indole-5-carboxamide], for which the pIC50 at JAK3 (Table 10, Formula A-I) was 6.00 to 7.00; at BTK-WT (Table 10, Formula A-I), at least 7.00; at LCK (Table 10, Formula A-I), 6.00 to 7.00.
For `Cc1cc(Nc2nc(N3CCC[C@@H](NC(=O)c4ccccc4)C3)cnc2C(N)=O)sn1` [Example A-19, 5-[(3R)-3-benzamidopiperidin-1-yl]-3-[(3-methyl-1,2-thiazol-5-yl)amino]pyrazine-2-carboxamide], the pIC50 on JAK3 (Table 10, Formula A-I) is 6.00 to 7.00; at BTK-WT (Table 10, Formula A-I), at least 7.00; at LCK (Table 10, Formula A-I), 6.00 to 7.00.
`Cc1cc(Nc2nc(N[C@H]3CC[C@H](NC(=O)c4ccc(N(C)C)cc4)CC3)cnc2C(N)=O)sn1` [Example B-1, 3-[(3-methyl-1,2-thiazol-5-yl)amino]-5-{[(1r,4r)-4-[4-(dimethylamino)benzamido]cyclohexyl]amino}pyrazine-2-carboxamide]: the negative logarithm of the IC50 (pIC50) on JAK3 (Table 11, Formula B-I) was 6.00 to 7.00; on BTK-WT (Table 11, Formula B-I) it was at least 7.00; on LCK (Table 11, Formula B-I) it was over 7.00.
For `C=CC(=O)N1CC[C@H](Nc2nnc(C(N)=O)c(Nc3cccc(C(=O)Nc4ccc(C(C)C)c(C)c4)c3)n2)C1` [Example C-29, (S)-3-(1-acryloylpyrrolidin-3-ylamino)-5-(3-(4-isopropyl-3-methylphenyl-carbamoyl)phenyl-amino)-1,2,4-triazine-6-carboxamide], the pIC50 at JAK3 (Table 12, Formula C-I) is over 7.00; at BTK-WT (Table 12, Formula C-I), at least 7.00; at LCK (Table 12, Formula C-I), under 5.00.
Turning to `Cc1ccc(C(=O)N[C@@H]2CCCN(c3cnc(C(N)=O)c(Nc4cc(C)ns4)n3)C2)c(F)c1` [Example A-24, 5-[(3R)-3-(2-fluoro-4-methylbenzamido)piperidin-1-yl]-3-[(3-methyl-1,2-thiazol-5-yl)amino]pyrazine-2-carboxamide], the pIC50 was under 5.00 on JAK3 (Table 10, Formula A-I); at least 7.00 on BTK-WT (Table 10, Formula A-I); under 5.00 at LCK (Table 10, Formula A-I).
As for `Cc1cc(Nc2nc(N(C)CC3CCN(C(=O)c4ccc(N(C)C)cc4)CC3)cnc2C(N)=O)sn1` [Example C-16, 5-[({1-[4-(dimethylamino)benzoyl]piperidin-4-yl}methyl)(methyl)amino]-3-[(3-methyl-1,2-thiazol-5-yl)amino]pyrazine-2-carboxamide], the pIC50 is 5.00 to 6.00 on JAK3 (Table 12, Formula C-I); 6.00 to 7.00 at BTK-WT (Table 12, Formula C-I); 5.00 to 6.00 at LCK (Table 12, Formula C-I).
For `Cc1cc(Nc2nc(N[C@H]3CCCN(C(=O)c4ccccc4)C3)cnc2C(N)=O)sn1` [Example C-6, 5-{[(3S)-1-benzoylpiperidin-3-yl]amino}-3-[(3-methyl-1,2-thiazol-5-yl)amino]pyrazine-2-carboxamide], the negative-log IC50 (pIC50) on JAK3 (Table 12, Formula C-I) was under 5.00; on BTK-WT (Table 12, Formula C-I), 5.00 to 6.00; on LCK (Table 12, Formula C-I), under 5.00.
With `Cc1cc(Nc2nc(N(C)CC3CCN(C(=O)c4ccccc4)CC3)cnc2C(N)=O)sn1` [Example C-15, 5-{[(1-benzoylpiperidin-4-yl)methyl](methyl)amino}-3-[(3-methyl-1,2-thiazol-5-yl)amino]pyrazine-2-carboxamide], the pIC50 at JAK3 (Table 12, Formula C-I) is 5.00 to 6.00; at BTK-WT (Table 12, Formula C-I), 6.00 to 7.00; at LCK (Table 12, Formula C-I), 5.00 to 6.00.
As for `Cc1cc(Nc2nc(N3CC[C@@H](NC(=O)N(C)C)C3)cnc2C(N)=O)sn1` [Example A-51, 5-[(3R)-3-[(dimethylcarbamoyl)amino]pyrrolidin-1-yl]-3-[(3-methyl-1,2-thiazol-5-yl)amino]pyrazine-2-carboxamide], the pIC50 is under 5.00 on JAK3 (Table 10, Formula A-I); 5.00 to 6.00 at BTK-WT (Table 10, Formula A-I); under 5.00 at LCK (Table 10, Formula A-I).
With `CC(C)c1ccc(Nc2nc(N3CCC(C(N)=O)CC3)nnc2C(N)=O)cc1` [Example A-91, 3-(4-carbamoylpiperidin-1-yl)-5-(4-isopropylphenylamino)-1,2,4-triazine-6-carboxamide], the pIC50 at BTK-WT (Table 10, Formula A-I) was 6.00 to 7.00; at LCK (Table 10, Formula A-I) it was under 5.00.
For `COc1ccc(NC(=O)N[C@@H]2CCCN(c3cnc(C(N)=O)c(Nc4cc(C)ns4)n3)C2)cc1` [Example A-15, 5-[(3R)-3-{[(4-methoxyphenyl)carbamoyl]amino}piperidin-1-yl]-3-[(3-methyl-1,2-thiazol-5-yl)amino]pyrazine-2-carboxamide] the same measures were at least 7.00 and 6.00 to 7.00.
Consider `CS(=O)(=O)c1ccc(Nc2nc(N3CCC[C@@H](NC(=O)Nc4ccccc4)C3)cnc2C(N)=O)cc1` [Example A-42, 3-[(4-methanesulfonylphenyl)amino]-5-[(3R)-3-[(phenylcarbamoyl)amino]piperidin-1-yl]pyrazine-2-carboxamide], for which the pIC50 at BTK-WT (Table 10, Formula A-I) was at least 7.00; on LCK (Table 10, Formula A-I), 6.00 to 7.00.
`CS(=O)(=O)c1ccc(Nc2nc(N3CCC[C@@H](NC(=O)Nc4cccnc4)C3)cnc2C(N)=O)cc1` [Example A-43, 3-[(4-methanesulfonylphenyl)amino]-5-[(3R)-3-{[(pyridin-3-yl)carbamoyl]amino}piperidin-1-yl]pyrazine-2-carboxamide]: the pIC50 is at least 7.00 on BTK-WT (Table 10, Formula A-I) and 6.00 to 7.00 on LCK (Table 10, Formula A-I).
For `NC(=O)c1ncc(N2CCC[C@@H](NC(=O)Nc3cccnc3)C2)nc1Nc1ccc(C2CCN(C3CCCC3)CC2)cc1` [Example A-1, 3-{[4-(1-cyclopentylpiperidin-4-yl)phenyl]amino)-5-[(3R)-3-([(pyridin-3-yl)carbamoyl]amino}piperidin-1-yl]pyrazine-2-carboxamide], in that order: at least 7.00 and over 7.00.
For `Cc1cc(Nc2nc(N3CCC[C@@H](NC(=O)Nc4ccccc4)C3)cnc2C(N)=O)sn1` [Example A-9], in that order: at least 7.00 and over 7.00.
For `NC(=O)c1ncc(N2CCC[C@@H](NC(=O)NC3CCCCC3)C2)nc1Nc1ccc(C2CCN(C3CCCC3)CC2)cc1` [Example A-3, 5-[(3R)-3-[(cyclohexylcarbamoyl)amino]piperidin-1-yl]-3-{[4-(1-cyclopentylpiperidin-4-yl)phenyl]amino}pyrazine-2-carboxamide], the pIC50 at BTK-WT (Table 10, Formula A-I) was at least 7.00; on LCK (Table 10, Formula A-I), 6.00 to 7.00.
Consider `Cc1cc(Nc2nc(N3CCC[C@@H](NC(=O)Nc4ccc(F)cc4)C3)cnc2C(N)=O)sn1` [Example A-14], for which the pIC50 at BTK-WT (Table 10, Formula A-I) was at least 7.00; on LCK (Table 10, Formula A-I), 6.00 to 7.00.
For `COc1cccc(NC(=O)N[C@@H]2CCCN(c3cnc(C(N)=O)c(Nc4cc(C)ns4)n3)C2)c1` [Example A-16, 5-[(3R)-3-{[(3-methoxyphenyl)carbamoyl]amino}piperidin-1-yl]-3-[(3-methyl-1,2-thiazol-5-yl)amino]pyrazine-2-carboxamide] the same measures were at least 7.00 and 6.00 to 7.00.
`Cc1cc(Nc2nc(N3CCC[C@@H](NC(=O)c4ccc(N(C)C)cc4)[C@H]3C)cnc2C(N)=O)sn1` [Example A-55, 5-[(2R,3R)-3-[4-(dimethylamino)benzamido]-2-methylpiperidin-1-yl]-3-[(3-methyl-1,2-thiazol-5-yl)amino]pyrazine-2-carboxamide]: the pIC50 on JAK3 (Table 10, Formula A-I) was 6.00 to 7.00; at BTK-WT (Table 10, Formula A-I), at least 7.00.
Regarding `Cc1cc(Nc2nc(N3CCC[C@@H](NC(=O)c4ccc(C(C)(C)C)cc4)C3)cnc2C(N)=O)sn1` [Example A-37, 5-[(3R)-3-(4-tert-butylbenzamido)piperidin-1-yl]-3-[(3-methyl-1,2-thiazol-5-yl)amino]pyrazine-2-carboxamide], the pIC50 at JAK3 (Table 10, Formula A-I) is under 5.00; on BTK-WT (Table 10, Formula A-I) it was at least 7.00.
